Results from PMC12406681 (Antimicrobial Agents and Chemotherapy, 2025).
Values joined by “and” are separate entries in the source; they are usually repeats but may differ in a detail not shown here. Equal values may be shown once. Read-outs that look alike come from different tables or passages of the source.

How the values were obtained:
[1] = assay type: in vivo; conditions: uninfected mice; s.c. once daily for 7 days
[2] = test system: LACV; test: microbe, parasite or virus in culture; assay type: cell-based, La Crosse virus
[3] = Cell viability assay (MTT), uninfected Vero cells; assay type: cell-based; conditions: African green monkey, mean ± SD
Description: (§1) CPE-based antiviral activity and cell viability assays were conducted as previously reported ([23]), with several modifications. Vero and SH-SY5Y cells were treated with serially diluted compounds in minimum essential medium (MEM) containing 2% FBS. In the antiviral evaluation, the cells were infected with LACV (40–80 plaque-forming unit [PFU]/well for Vero and 300–4,000 PFU/well for SH-SY5Y cells). In the cell viability assays, the cells treated with the compounds were cultured in the absence of viral infection. After 2 or 3 days of culture, the cells were stained with 3-(4,5-dimethylthiazol-2-yl)-2,5-diphenyltetrazolium bromide (MTT). The antiviral activity (50% effective concentration values, EC50) was calculated using Prism version 9.5.1 (GraphPad, La Jolla, CA, USA) using the four-parameter logistic method. Non-infected and non-treated cells were defined as the 100% inhibition control, while LACV-infected and non-treated cells were defined as the 0% inhibition control. Cell viability (50% cytotoxicity concentration values, CC50) was calculated using the MTT assay. Non-treated control cells were defined as the 100% cell viability control, while wells containing culture medium without cells were defined as the 0% cell viability control. Selective Index (SI50) was calculated as the ratio of CC50 to EC50 (CC50/EC50).

[4] = test system: LACV passage control WT; test: microbe, parasite or virus in culture; assay type: cell-based; conditions: La Crosse virus, SH-SY5Y
[5] = test system: LACV passage control WT; test: microbe, parasite or virus in culture; assay type: cell-based; conditions: La Crosse virus, Vero
[6] = test system: Bunyaviruses, including LACV; parameters: method as in PMID 36037386; conditions: cited from earlier work
[7] = test system: LACV; test: microbe, parasite or virus in culture; assay type: cell-based, La Crosse virus; remark: listed apart in the source
[8] = test system: LACV; assay type: cell-based, La Crosse virus
[9] = Cell viability assay (MTT), uninfected SH-SY5Y cells; assay type: cell-based; conditions: human, MTT at 3 dpi, mean ± SD
Description: as §1

[10] = test system: CEN of orthobunyaviruses; parameters: method as in PMID 32766680, PMID 38656310; conditions: cited from earlier work

CC(C)N1CN(C2c3ccccc3CCc3ccccc32)n2cc(C(=O)O)c(=O)c(O)c2C1=O [CAPCA-1, carbamoyl pyridone carboxylic acid (CAPCA)-1]
Body weight changes versus vehicle-treated mice [1]: No significant differences in body weight changes | Antiviral activity compared with other CEN inhibitors [2]: antiviral activity comparable to that of CAPCA-4 and demonstrated higher activity than CAPCA-2, -3, and -5 | EC50 [2]: 0.69 µM and 0.95 µM | EC50 ([2]; La Crosse virus, SH-SY5Y): < 1 µM | CC50 [3]: > 50 µM | EC50 [4]: 0.65 ± 0.05 µM | EC50 [5]: 0.79 ± 0.39 µM | Susceptibility of bunyaviruses among the four CEN inhibitors [6]: most susceptible to CAPCA-1 | EC50 lower than for T-705 and RBV [7]: more than 50 fold | Inhibition of LACV-induced cell death compared with other CEN inhibitors [7]: inhibited LACV-induced cell death at lower concentrations than the other CEN inhibitors | Viral RNA expression, entry-stage treatment [8]: no inhibitory effect | CC50 at 3 days [9]: > 50 µM

O=C1c2c(O)c(=O)ccn2N([C@@H]2c3ccccc3SCc3c2ccc(F)c3F)[C@@H]2COCCN12 [BXA, baloxavir acid]
Binding to CEN and inhibition of enzymatic activity [10]: binds to the CEN of orthobunyaviruses and inhibits its enzymatic activity

NC(=O)c1nc(F)c[nH]c1=O [T-705, favipiravir, reference compound]
EC50 ([2]; La Crosse virus, SH-SY5Y): > 100 µM | CC50 [3]: 117 ± 24.7 µM | EC50 [5]: 43.8 ± 11.5 µM | EC50 [7]: 37.8 ± 3.96 µM | EC50 ([7]; La Crosse virus, Vero): 33.9 ± 5.29 µM | Viral RNA expression, entry-stage treatment [8]: no inhibitory effect | CC50 at 3 days [9]: > 200 µM

NC(=O)c1ncn([C@@H]2O[C@H](CO)[C@@H](O)[C@H]2O)n1 [RBV, Ribavirin, reference compound]
EC50 ([2]; La Crosse virus, SH-SY5Y): > 100 µM | CC50 [3]: 82.1 ± 28.4 µM | EC50 ([7]; La Crosse virus, Vero): > 100 µM | CC50 at 3 days [9]: 121 ± 7.61 µM
